Experimental data published in PubChem BioAssay AID652199 (Broad Institute, 2013).
Active and inactive are the calls of the source.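 The calls were made as follows: active = half-maximal inhibitory concentration AC50 at or below 30 µM; inactive = the rest, including compounds with no fitted curve.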

Target: Protein disulfide-isomerase (Homo sapiens) (UniProt P07237)
Experiment: PDI inhibitors, insulin aggregation turbidity, confirmation, biochemical, dry powder samples, set 3 (AID 652199)
Settings: absorbance 650 nm, 90 min

Protein disulfide-isomerase (Homo sapiens), sequence (P07237 whole entry, looked up): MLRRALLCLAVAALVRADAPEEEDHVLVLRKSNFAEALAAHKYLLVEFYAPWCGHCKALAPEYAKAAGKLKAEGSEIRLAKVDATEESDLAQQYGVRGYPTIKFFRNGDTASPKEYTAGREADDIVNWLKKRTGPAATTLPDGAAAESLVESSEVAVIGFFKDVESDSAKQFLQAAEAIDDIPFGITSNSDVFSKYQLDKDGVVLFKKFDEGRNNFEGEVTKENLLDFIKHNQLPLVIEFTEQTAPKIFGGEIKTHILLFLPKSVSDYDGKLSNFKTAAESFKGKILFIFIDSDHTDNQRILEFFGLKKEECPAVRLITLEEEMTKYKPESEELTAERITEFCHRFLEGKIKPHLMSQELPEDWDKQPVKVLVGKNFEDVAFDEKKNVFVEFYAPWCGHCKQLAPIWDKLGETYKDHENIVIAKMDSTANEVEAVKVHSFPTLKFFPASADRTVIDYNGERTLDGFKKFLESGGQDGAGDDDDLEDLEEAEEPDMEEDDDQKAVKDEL

| AC50 | SMILES |
| --- | --- |
| 1.5 µM | CCOC(=O)C1(CCOc2ccccc2)CCN(C(=O)c2ccc(O)c(Cl)c2)CC1 |
| 20 µM | CCOC(=O)C1(CCOc2ccccc2)CCN(Cc2ccc(O)cc2)CC1 |
| > 30 µM (inactive) | CCOC(=O)C1(CCOc2ccccc2)CCN(Cc2ccc(OC)c(Cl)c2)CC1 |
| 1.5 µM | C/C1=C\[C@@H](O)C(C)(C)CCCC2(C)OC2C[C@@H]1OC(=O)c1ccc(O)cc1 (some centres not stated) |
| 3 µM | O=C(NC1CCCC1)C1(CCOc2ccccc2)CCN(Cc2ccc(O)c(Cl)c2)CC1 |
| 3 µM | CCOC(=O)c1c(CN2CCN(CCO)CC2)n(-c2ccccc2)c2cc(Br)c(O)cc12 |
| 30 µM | O=C(Nc1ccccc1)C1(CCOc2ccccc2)CCN(Cc2ccc(O)c(Cl)c2)CC1 |
| 0.4 µM | CCOC(=O)C1(CCOc2ccccc2)CCN(Cc2ccc(O)c(Cl)c2)CC1 |
| 0.7 µM | CC(C)(C)OC(=O)C1(CCOc2ccccc2)CCN(Cc2ccc(O)c(Cl)c2)CC1 |
| 3 µM | CCN(C)C(=O)C1(CCOc2ccccc2)CCN(Cc2ccc(O)c(Cl)c2)CC1 |
| 0.7 µM | CC(C)OC(=O)C1(CCOc2ccccc2)CCN(Cc2ccc(O)c(Cl)c2)CC1 |
| 5 µM | C/C1=C\C[C@H](OC(=O)c2ccc(O)cc2)/C(C)=C/[C@@H](O)C(C)(C)CCC1 |
